Where “and” joins values, the source holds several entries; their conditions need not be identical. Identical values can stand only once.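 Growth conditions: 96-well plates. Treatment: test compound, 48 hours, 5 concentrations. Analysis: linear interpolation between bracketing concentrations; unreached endpoints set to highest concentration. Abbreviation: GI50, concentration required for 50% inhibition of growth. TGI is the concentration that stops growth completely.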
Experiments:
Experiment in all cases: NCI tumour cell line growth inhibition, 48 h
CAKI-1 renal = test system: CAKI-1 renal
OVCAR-3 ovarian = test system: OVCAR-3 ovarian
HOP-62 NSCLC = test system: HOP-62 NSCLC
SK-MEL-5 melanoma = test system: SK-MEL-5 melanoma
EKVX NSCLC = test system: EKVX NSCLC
OVCAR-5 ovarian = test system: OVCAR-5 ovarian
UO-31 renal = test system: UO-31 renal
MALME-3M melanoma = test system: MALME-3M melanoma
KM12 colon = test system: KM12 colon
SK-MEL-28 melanoma = test system: SK-MEL-28 melanoma
HCT-116 colon = test system: HCT-116 colon
HT29 colon = test system: HT29 colon

Nc1ncnc2oc(C3OC(COC(=O)c4ccccc4)C(OC(=O)c4ccccc4)C3OC(=O)c3ccccc3)nc12 (stereo unspecified)
TGI (CAKI-1 renal): > 100 µM | TGI (OVCAR-3 ovarian): > 100 µM | TGI (HOP-62 NSCLC): > 100 µM | TGI (SK-MEL-5 melanoma): > 100 µM | TGI (EKVX NSCLC): > 100 µM | TGI (OVCAR-5 ovarian): > 100 µM | TGI (UO-31 renal): > 100 µM | TGI (MALME-3M melanoma): > 100 µM | TGI (KM12 colon): > 100 µM | TGI (SK-MEL-28 melanoma): > 100 µM | TGI (HCT-116 colon): > 100 µM | TGI (HT29 colon): > 100 µM

C[N+](C)(C)c1ncnc2c1ncn2C1CC(O)C(CO)O1 (stereo unspecified)
TGI (CAKI-1 renal): > 100 µM | TGI (OVCAR-3 ovarian): > 100 µM | TGI (HOP-62 NSCLC): > 100 µM | TGI (SK-MEL-5 melanoma): > 100 µM | TGI (EKVX NSCLC): > 100 µM | TGI (OVCAR-5 ovarian): > 100 µM | TGI (UO-31 renal): > 100 µM | TGI (MALME-3M melanoma): > 100 µM | TGI (KM12 colon): > 100 µM | TGI (SK-MEL-28 melanoma): > 100 µM | TGI (HCT-116 colon): > 100 µM | TGI (HT29 colon): > 100 µM

CC(N)Cc1ccc(Cl)c(Cl)c1 (stereo unspecified)
TGI (CAKI-1 renal): 74.5 µM | TGI (OVCAR-3 ovarian): > 100 µM | TGI (HOP-62 NSCLC): > 100 µM | TGI (SK-MEL-5 melanoma): 31 µM | TGI (EKVX NSCLC): > 100 µM | TGI (OVCAR-5 ovarian): > 82.5 µM | TGI (UO-31 renal): 66.3 µM | TGI (MALME-3M melanoma): 35.5 µM | TGI (KM12 colon): > 100 µM | TGI (SK-MEL-28 melanoma): 39.1 µM | TGI (HCT-116 colon): > 100 µM | TGI (HT29 colon): 56.5 µM

COC(=O)c1c(C)n([O-])c2cc(Cl)c(Cl)cc2[n+]1=O
TGI (CAKI-1 renal): 61 µM | TGI (OVCAR-3 ovarian): 52.4 µM | TGI (HOP-62 NSCLC): > 100 µM | TGI (SK-MEL-5 melanoma): 23.4 µM | TGI (EKVX NSCLC): 67.7 µM | TGI (OVCAR-5 ovarian): > 100 µM | TGI (UO-31 renal): 46.7 µM | TGI (MALME-3M melanoma): 31.1 µM | TGI (KM12 colon): 33.1 µM | TGI (SK-MEL-28 melanoma): 92.1 µM | TGI (HCT-116 colon): > 100 µM | TGI (HT29 colon): 51.6 µM

c1cc2nnc1SCCCSc1ccc(nn1)SCCCS2
TGI (CAKI-1 renal): > 100 µM | TGI (OVCAR-3 ovarian): > 74.1 µM | TGI (HOP-62 NSCLC): > 93.1 µM | TGI (SK-MEL-5 melanoma): > 100 µM | TGI (EKVX NSCLC): > 100 µM | TGI (OVCAR-5 ovarian): > 100 µM | TGI (UO-31 renal): > 100 µM | TGI (MALME-3M melanoma): > 100 µM | TGI (KM12 colon): > 100 µM | TGI (SK-MEL-28 melanoma): > 100 µM | TGI (HCT-116 colon): > 54.1 µM | TGI (HT29 colon): > 100 µM

C=C1CC(c2ccc(OCCCN3C(=O)c4ccccc4C3=O)cc2)OC1=O (stereo unspecified)
TGI (CAKI-1 renal): 6.54 µM | TGI (OVCAR-3 ovarian): 5.31 µM | TGI (HOP-62 NSCLC): 33.2 µM | TGI (SK-MEL-5 melanoma): 20.4 µM | TGI (EKVX NSCLC): 18.4 µM | TGI (OVCAR-5 ovarian): 25.5 µM | TGI (UO-31 renal): 7.81 µM | TGI (MALME-3M melanoma): 7.27 µM | TGI (KM12 colon): 16.8 µM | TGI (SK-MEL-28 melanoma): 3.98 µM | TGI (HCT-116 colon): 4.89 µM | TGI (HT29 colon): 9.24 µM

Fc1ccc(N2C(=S)SC(=Nc3ccccc3)C2=Nc2ccccc2)cc1
TGI (CAKI-1 renal): > 100 µM | TGI (OVCAR-3 ovarian): > 100 µM | TGI (HOP-62 NSCLC): > 100 µM | TGI (SK-MEL-5 melanoma): > 100 µM | TGI (EKVX NSCLC): > 100 µM | TGI (OVCAR-5 ovarian): > 100 µM | TGI (UO-31 renal): > 100 µM | TGI (MALME-3M melanoma): > 100 µM | TGI (KM12 colon): > 100 µM | TGI (SK-MEL-28 melanoma): > 100 µM | TGI (HCT-116 colon): > 100 µM | TGI (HT29 colon): > 100 µM

COc1ccc(OC)c(N(CN2C(=O)CCC2C(=O)O)C(C)=O)c1 (stereo unspecified)
TGI (CAKI-1 renal): > 100 µM | TGI (OVCAR-3 ovarian): > 100 µM | TGI (HOP-62 NSCLC): > 100 µM | TGI (SK-MEL-5 melanoma): > 100 µM | TGI (EKVX NSCLC): > 100 µM | TGI (OVCAR-5 ovarian): > 100 µM | TGI (UO-31 renal): > 100 µM | TGI (MALME-3M melanoma): > 100 µM | TGI (KM12 colon): > 100 µM | TGI (SK-MEL-28 melanoma): > 100 µM | TGI (HCT-116 colon): > 100 µM | TGI (HT29 colon): > 100 µM

O=C(c1ccccc1)N(C(=O)c1ccccc1)c1nc(SCc2ccccc2)ns1
TGI (CAKI-1 renal): > 100 µM | TGI (OVCAR-3 ovarian): 59.4 µM | TGI (HOP-62 NSCLC): 87.1 µM | TGI (SK-MEL-5 melanoma): 30.6 µM | TGI (EKVX NSCLC): 68.7 µM | TGI (OVCAR-5 ovarian): 86.8 µM | TGI (UO-31 renal): 23.7 µM | TGI (MALME-3M melanoma): 74.8 µM | TGI (KM12 colon): > 100 µM | TGI (SK-MEL-28 melanoma): 93.1 µM | TGI (HCT-116 colon): 57.3 µM | TGI (HT29 colon): 84.8 µM

Cc1cc(N(CCC#N)CCC#N)ccc1/C(N=Nc1cccc(Cl)c1)=N/NC(=O)c1cc(Cl)ccc1O
TGI (CAKI-1 renal): 44.8 µM | TGI (OVCAR-3 ovarian): 16.5 µM | TGI (HOP-62 NSCLC): 62 µM | TGI (SK-MEL-5 melanoma): 26.9 µM | TGI (EKVX NSCLC): 39.6 µM | TGI (OVCAR-5 ovarian): > 100 µM | TGI (UO-31 renal): 55.6 µM | TGI (MALME-3M melanoma): 28.1 µM | TGI (KM12 colon): 35.4 µM | TGI (SK-MEL-28 melanoma): 49.9 µM | TGI (HCT-116 colon): 44.4 µM | TGI (HT29 colon): 44.2 µM

O=[N+]([O-])c1ccc(OC2CC3C4C=CC3C2C4)c([N+](=O)[O-])c1 (stereo unspecified)
TGI (CAKI-1 renal): > 100 µM | TGI (OVCAR-3 ovarian): > 100 µM | TGI (HOP-62 NSCLC): > 100 µM | TGI (SK-MEL-5 melanoma): > 100 µM | GI50 (EKVX NSCLC): 56.5 µM and 22 µM | TGI (EKVX NSCLC): > 100 µM | GI50 (OVCAR-5 ovarian): > 100 µM | TGI (OVCAR-5 ovarian): > 100 µM | GI50 (UO-31 renal): > 100 µM | TGI (UO-31 renal): > 100 µM | TGI (MALME-3M melanoma): > 100 µM | GI50 (KM12 colon): > 100 µM | TGI (KM12 colon): > 100 µM | GI50 (SK-MEL-28 melanoma): > 100 µM | TGI (SK-MEL-28 melanoma): > 100 µM | GI50 (HCT-116 colon): 66.2 µM and > 31.6 µM | TGI (HCT-116 colon): > 100 µM | GI50 (HT29 colon): > 100 µM and 30 µM | TGI (HT29 colon): > 100 µM

Clc1cc(Cl)cc(N=C/C=C/Nc2cc(Cl)cc(Cl)c2)c1
TGI (CAKI-1 renal): 38.2 µM | TGI (OVCAR-3 ovarian): 27.7 µM | TGI (HOP-62 NSCLC): 51.8 µM | TGI (SK-MEL-5 melanoma): 34.2 µM | TGI (EKVX NSCLC): 26.9 µM | TGI (OVCAR-5 ovarian): 51.9 µM | TGI (UO-31 renal): 71.7 µM | TGI (MALME-3M melanoma): > 100 µM | TGI (KM12 colon): 30.2 µM | TGI (SK-MEL-28 melanoma): 47 µM | TGI (HCT-116 colon): 30.1 µM | TGI (HT29 colon): 28.5 µM

CCOP1(=O)CC(C)=C(Cl)C(O)C1 (stereo unspecified)
TGI (CAKI-1 renal): > 100 µM | TGI (OVCAR-3 ovarian): > 100 µM | TGI (HOP-62 NSCLC): > 100 µM | TGI (SK-MEL-5 melanoma): > 100 µM | TGI (EKVX NSCLC): > 100 µM | TGI (OVCAR-5 ovarian): > 100 µM | TGI (UO-31 renal): > 100 µM | TGI (MALME-3M melanoma): > 100 µM | TGI (KM12 colon): > 100 µM | TGI (SK-MEL-28 melanoma): > 100 µM | TGI (HCT-116 colon): > 100 µM | TGI (HT29 colon): > 100 µM

NNC(=O)c1c(-c2cccnc2)cnc2ccccc12
TGI (CAKI-1 renal): > 100 µM | TGI (OVCAR-3 ovarian): > 100 µM | TGI (HOP-62 NSCLC): > 100 µM | TGI (SK-MEL-5 melanoma): > 100 µM | TGI (EKVX NSCLC): > 100 µM | TGI (OVCAR-5 ovarian): > 100 µM | TGI (UO-31 renal): > 100 µM | TGI (MALME-3M melanoma): > 100 µM | TGI (KM12 colon): > 100 µM | TGI (SK-MEL-28 melanoma): > 100 µM | TGI (HCT-116 colon): > 100 µM | TGI (HT29 colon): > 100 µM

CCc1c(C)c(C#N)c(=S)n(C2OC(COC(C)=O)C(OC(C)=O)C(OC(C)=O)C2OC(C)=O)c1-c1ccccc1 (stereo unspecified)
TGI (CAKI-1 renal): > 100 µM | TGI (OVCAR-3 ovarian): > 31.6 µM | TGI (HOP-62 NSCLC): > 31.6 µM | TGI (SK-MEL-5 melanoma): > 31.6 µM | TGI (EKVX NSCLC): > 100 µM | TGI (OVCAR-5 ovarian): > 31.6 µM | TGI (UO-31 renal): > 31.6 µM | TGI (MALME-3M melanoma): > 31.6 µM | TGI (KM12 colon): > 31.6 µM | TGI (SK-MEL-28 melanoma): > 31.6 µM | TGI (HCT-116 colon): > 31.6 µM | TGI (HT29 colon): > 31.6 µM

NC1CC(=O)c2c1sc(Cl)c2Cl (stereo unspecified)
TGI (CAKI-1 renal): > 100 µM | TGI (OVCAR-3 ovarian): > 100 µM | TGI (HOP-62 NSCLC): > 100 µM | TGI (SK-MEL-5 melanoma): > 100 µM | TGI (EKVX NSCLC): > 100 µM | TGI (OVCAR-5 ovarian): > 100 µM | TGI (UO-31 renal): > 100 µM | TGI (MALME-3M melanoma): > 100 µM | TGI (KM12 colon): > 100 µM | TGI (SK-MEL-28 melanoma): > 100 µM | TGI (HCT-116 colon): > 100 µM | TGI (HT29 colon): > 100 µM

O=c1[nH]c(=S)nc2nc3c4ccc[nH]c4c4ccccc4c3nc12
TGI (CAKI-1 renal): > 100 µM | TGI (OVCAR-3 ovarian): > 100 µM | TGI (HOP-62 NSCLC): > 100 µM | TGI (SK-MEL-5 melanoma): > 100 µM | TGI (EKVX NSCLC): > 100 µM | TGI (OVCAR-5 ovarian): > 100 µM | TGI (UO-31 renal): > 100 µM | TGI (MALME-3M melanoma): > 100 µM | TGI (KM12 colon): > 100 µM | TGI (SK-MEL-28 melanoma): > 100 µM | TGI (HCT-116 colon): > 100 µM | TGI (HT29 colon): > 100 µM

Reference: PubChem BioAssay (NCI)
